We go through 5 molecules from patent US20080200557A1, “Method for Inhibiting Lipid Peroxidation” (CARITAS ST. ELIZABETH HOSPITAL OF BOSTON, INC., priority 2004, published 2008).

For test [1], the system named is lipid peroxidation induced by lipopolysaccharide (LPS) in rat brain tissues. Nature of the test: LPS-induced lipid peroxidation (TBARS/MDA) in rat brain homogenates. To be noted: rat brain homogenate, LPS 400 μg/ml. Type of test: biochemical, Fisher 344N male rats. The procedure:
N-acetyldopamine, melatonin, 2-thiobarbituric acid, and LPS (Escherichia coli 0127:B8) were purchased from Sigma Chemical Co. (St. Louis, Mo.). The formation of thiobarbituric acid reactive substances (TBARS) was used as index of induced oxidative damage to lipid membranes. Lipid peroxidation was induced with LPS (400 μg/ml).
Brain tissues from Fisher 344N male rats were homogenized in 20 mM pH 7.4 Tris buffer. The homogenates were then incubated (1 hr) in solvent alone (control) or in solvent+LPS (400 μg/ml), N-acetyldopamine+LPS, NAS+LPS, melatonin+LPS, and N-acetyldopamine+NAS+LPS (for concentrations of N-acetyldopamine, NAS and melatonin, see Results). TBARS were added, and homogenates were incubated for 20 min. in a boiling water bath. After cooling, the absorbance was measured spectrophotometrically at 532 nm. TBARS concentrations were derived from a standard curve of MDA (Oxis International, Portland, Oreg.). Protein was determined by Lowry method (Sigma Chem. Co., St. Louis, Mo.). Results are expressed as mean+S.D. (n=6). Data was treated by one-way ANOVA and Student's t-test.

Test [2] relates to LPS lethal effect. The note with it: mice; cited from earlier work.
Test [3] concerns LPS-induced hypotensive shock. To be noted: rats; cited from earlier work.
In test [4] the test system is lipid peroxidation induced by FeCl2 in mice brain tissues. Nature of the test: FeCl2-induced lipid peroxidation (TBARS/MDA) in mouse brain tissues. To be noted: FeCl2 1 mM. The test is classed as biochemical, mice C57BI/J6. The procedure:
The effect of N-substituted dopamine derivatives on FeCl2-induced oxidative damage was evaluated in mice C57BI/J6 brain tissues.
Brain tissues from C57BI/J6 […] were homogenized in 20 mM pH 7.4 Tris buffer. The homogenates were then incubated (1 hr) in solvent alone (control) or in solvent+FeCl2, N-acetyldopamine+FeCl2, N-methyldopamine (deoxyepinephrine)+FeCl2, 3-methoxyldopamine+FeCl2, and 4-methoxydopamine (3-hydroxy-4-methoxy phenethylamine HCl)+FeCl2. TBARS were added, and homogenates were incubated for 20 min. in a boiling water bath. After cooling, the absorbance was measured spectrophotometrically at 532 nm. TBARS concentrations were derived from a standard curve of MDA (Oxis International, Portland, Oreg.). Protein was determined by Lowry method (Sigma Chem. Co., St. Louis, Mo.). Results are expressed as mean +S.D. (n=6). Data was treated by one-way ANOVA and Student's t-test

Test [5] deals with lipid peroxidation induced by lipopolysaccharide (LPS) in mice brain tissues. Nature of the test: LPS-induced lipid peroxidation (TBARS/MDA) in mouse brain tissues. The note with it: C57BI/6J mouse brain. Type of test: biochemical.
The subject of test [6] is toxic effect of LPS. To be noted: laboratory animals; cited from earlier work.
In test [7] the test system is septic shock. To be noted: patients suffering from septic shock; cited from earlier work.

With `CC(=O)NCCc1ccc(O)c(O)c1` [N-acetyldopamine], in test [1] (1 hr incubation, FIG. 1), the “concentration from which inhibition of LPS-induced formation of MDA starts” value turned out to be 50 µM and the “concentration reaching complete inhibition of LPS-induced formation of MDA” value came out at 200 µM. For the same molecule, the “effect on LPS-induced lipid peroxidation (MDA formation), in words” value in test [1] (FIGS. 1-2) is given as “inhibited LPS-induced formation of MDA in a dose-dependent manner”.

Consider `CC(=O)NCCc1c[nH]c2ccc(O)cc12` [NAS, N-acetylserotonin], for which the “protection against LPS lethal effect” value in test [2] is reported as “protects”. In addition, the “protection against LPS-induced hypotensive shock” value in test [3] is “protects rats against LPS-induced hypotensive shock”.

Take `CNCCc1ccc(O)c(O)c1` [N-methyldopamine, N-methyldopamine (deoxyepinephrine)]: in test [4] (FIG. 10), the “concentration from which inhibition of FeCl2-induced formation of MDA starts” value came to 25 µM and the “concentration reaching complete inhibition of FeCl2-induced formation of MDA” value was 200 µM. Moreover, the “effect on FeCl2-induced formation of MDA, in words” value in test [4] (FIGS. 8-12) is on record as “most prominent effect”.

With `COc1cc(CCN)ccc1O` [3-methoxydopamine, 4-hydroxyl-3-methoxy phenethylamine], the “effect on LPS-induced lipid peroxidation (MDA formation), in words” value in test [5] (FIGS. 6-7) is reported as “inhibited LPS-induced formation of MDA in C57BI/6J mouse brain in a dose-dependent manner”. The “inhibition of LPS-induced formation of MDA” value in test [5] (at 200μ, FIG. 6) is 50%.

Consider `COc1ccc2[nH]cc(CCNC(C)=O)c2c1` [Melatonin, melatonin], for which, in test [1] (FIG. 3), the “concentration reaching statistically significant inhibition of LPS-induced lipid peroxidation” value turned out to be 800 µM. For the same molecule, in test [6], the “effect on toxic effect of LPS” value was “counteract the toxic effect of LPS”. In test [7], the effect on lethality result is given as “prevent lethality”.
